In patent US20080318268A1, “Devices and Methods for the Selection of Agents with Efficacy Against Biofilm” (priority 2005, published 2008):
Entries after “also recorded” stand apart in the source; their conditions may differ. Like-named read-outs stand apart in the source and are kept apart here.

Experiments:
Assay type in all cases: cell-based
[1] = tested on: planktonic Candida cells; assay: Planktonic antifungal sensitivity of Candida spp.; conditions: all species tested
Experimental: (§1) Three clinical isolates of Candida were used in this study, including one albicans and two non-albicans species. C. albicans ATCC 14053 was obtained from the University Of Calgary, Department Of Biological Sciences. C. tropicalis 99916 and C. glabrata 14326 were obtained from the dialysate of patients undergoing continued ambulatory peritoneal dialysis (CAPD). Aspergillus fumigatus was also tested.
(§2) Biofilm susceptibility testing uses the pegged lid of the assembly, now containing biofilms formed after rocking in the tray for 24 hour. Each peg on the lid was gently washed once in 200 μl of phosphate buffered saline solution (PBSS) in a 96-well microtiter plate (Falcon). The pegged lid was then transferred to another 96 well microtiter plate containing 2 fold dilutions antifungal agent in 200 μl of RPMI 1640 (Sigma, St. Louis, Mo.) or RPMI 1640 containing 1% DMSO (see test drug section). After the pegs were exposed to the drugs for 24 hours, the pegged lid was removed and gently rinsed twice in saline. The pegged lid was then placed on a 96 well plate containing RPMI 1640 recovery medium. The pegs were sonicated for 5 minutes (Candida spp.) or 7 minutes (Aspergillus) in an ultrasonicator to dislodge adherent cells into the recovery medium. Aliquots of 20 μl of the recovery medium were spot plated on SDA (Candida spp) or Rose Bengal Agar (A. fumigatus) to obtain the MBEC. The assembly was also used to determine the minimum inhibitory concentration (MIC) and minimum fungicidal concentration (MFC). The turbidity of the wells that contained the antibiotic and planktonic cells which were shed from the biofilm was measured at 650 nm to obtain the MIC. A 20 μl sample from each well was also spot plated onto Sabouraud Dextrose agar (Candida spp) or Rose Bengal Agar (A. fumigatus) to obtain the MFC.
Minimum Inhibitory Concentrations (MIC) and Minimum Fungicidal Concentrations (MFC) were determined according to the guidelines of the National Committee for Clinical laboratory Standards (NCCLS). Briefly, Candida sp. were maintained on polystyrene spheres at −70° C. until plating. These organisms were streaked onto Sabouraud Dextrose agar (Microbiologie) plates 24 hours before test initiation. The 24 hour colonies were picked from the agar plates and placed in Muellar-Hinton Broth (MHB, Microbiologie) such that the turbidity matched a McFarland standard of 0.5. This was then diluted 1:10 in MHB to obtain a suspension of approximately 1×10^5 to 5×10^5 CFU/ml. A 5 μl volume of this suspension was added to wells containing 200 μl of antifungal agent serially diluted in RPMI 1640 media (Sigma) in a 96 well microtiter plate (Nunclon). A. fumigatus was maintained as a spore suspension at 4° C. until testing. The spore suspension (50 μl) was diluted into 250 ml of TSB, and 5 μl of this suspension was added to each test well containing dilution of antifungal agent as above.
The test wells were then incubated at 37° C. for 24 hours with the antifungal drugs. MICs for Candida were obtained after incubation by reading the turbidity at 650 nm on a microtiter plate reader (Softmax, VWR). A 20 μl aliquot of each well was also plated (SDA) and MFCs obtained from them after 24 hours incubation at 37° C. MFCs were determined for Aspergillus by plating 100 μl from each well onto Rose Bengal Agar, followed by spreading with a sterile glass spreader. The plated organisms were maintained at 25° C. for three days before colony enumeration.
Drugs tested. Itraconazole, Fluconazole, and Ketoconazole were obtained from Janssen Pharmaceuticals in Brussels, Belgium. Nystatin 5-Fluorocytosine, Griseofulvin, Amphotericin B and Polymyxin B were obtained from Sigma Chemical Co, St. Louis, Mo. 5-Fluorocytosine, polymyxin B sulphate and nystatin were dissolved in double-distilled water to a concentration of 10.24 mg/ml and diluted in the test wells through a range of 1024 μg/ml to 0.125 μg/ml in RPMI. […]

[2] = tested on: P. aeruginosa biofilm; assay: Pseudomonas aeruginosa biofilm assay kit, biofilm MBEC reading of recovery plate (Example 8); conditions: challenge 24 hours at 35° C.; recovery 20 to 24 hours; breakpoint concentrations
[3] = tested on: Pseudomonas aeruginosa (Ps) planktonic bacteria; assay: MBEC assay, planktonic Ps isolates (Example 5)
[4] = tested on: Pseudomonas aeruginosa (Ps) biofilm; assay: MBEC assay, Ps biofilms (Example 5); conditions: number of resistant isolates; 12 isolates from Cystic Fibrosis patients; exposed 24 hours
[5] = tested on: planktonic P. aeruginosa; assay: Pseudomonas aeruginosa biofilm assay kit, planktonic MIC reading of challenge plate (Example 8); conditions: challenge 24 hours at 35° C.; breakpoint concentrations
[6] = tested on: planktonic Staphylococcus aureus; assay: Staphylococcus test plate, planktonic forms (Example 9); conditions: breakpoint concentrations, number in the label is the concentration tested
[7] = tested on: Staphylococcus aureus (Staph) planktonic bacteria; assay: MBEC assay, planktonic Staph isolates (Example 5); conditions: number of resistant isolates; 12 isolates from device associated infections; exposed 24 hours
[8] = tested on: Staphylococcus aureus biofilm; assay: Staphylococcus test plate, biofilm forms (Example 9); conditions: breakpoint concentrations; number in the label is the concentration tested
[9] = tested on: Staphylococcus aureus (Staph) biofilm; assay: MBEC assay, Staph biofilms (Example 5); conditions: number of resistant isolates; 12 isolates from device associated infections; exposed 24 hours
[10] = tested on: Candida biofilms; assay: Minimum biofilm eradication concentration assay, Candida spp. biofilms; conditions: biofilm (sessile) Candida
Experimental: as §1
Biofilm formation and measurement of antimicrobial sensitivity of Candida and Aspergillus biofilms were performed using an assembly of the present invention. The device features a microtiter plate lid with 96 pegs or projections distributed on the lid. Each peg provided the surface for microorganism to adhere, colonize and form a uniform biofilm. The pegs fit precisely into the wells of a standard 96-well microtiter plate. The lid was used in conjunction with a base having special troughs for growing, washing, and incubating fungi. Colonies of Candida sp. were picked from 24 hour cultures on Sabouraud Dextrose agar (SDA) (BBL Microbiological Systems, Cockeysville, Md.) and placed into Mueller-Hinton Broth (MHB) (Difco Laboratories, Detroit Mich.) such that the suspension matched a McFarland standard of 1.0. This suspension was then diluted 1:30 in MHB, and 25 ml were pipetted into the trough chamber of the base. The closed assembly (lid with pegs positioned on the base) was placed on a Hoeffer Red Rocker (VWR, Scientific) set to rock the plates 3.5 cycles per minute in a 37° C. incubator. C. albicans and C. tropicalis were incubated aerobically, while C. glabrata was incubated in 10% CO2. It was determined in preliminary experiments that C. glabrata required 10% CO2 atmosphere for biofilms to form.
as §2
Drugs tested. Itraconazole, Fluconazole, and Ketoconazole were obtained from Janssen Pharmaceuticals in Brussels, Belgium. Nystatin 5-Fluorocytosine, Griseofulvin, Amphotericin B and Polymyxin B were obtained from Sigma Chemical Co, St. Louis, Mo. […]

[11] = number of resistant isolates, 12 isolates from Cystic Fibrosis patients, exposed 24 hours

Nc1nc(=O)[nH]cc1F [5-fluorocytosine, 5-Fluorocytosine] was tested, and the “effectiveness in killing planktonic Candida cells” value [1] was “effective”.
In the case of NCC[C@H](O)C(=O)N[C@@H]1C[C@H](N)[C@@H](O[C@H]2O[C@H](CN)[C@@H](O)[C@H](O)[C@H]2O)[C@H](O)[C@H]1O[C@H]1O[C@H](CO)[C@@H](O)[C@H](N)[C@H]1O [AK, amikacin], the “Number of P. aeruginosa isolates resistant to individual antibiotics and antibiotic combinations, Biofilm” value [2] is reported as 11, the “Ps resistance to individual antibiotics and antibiotic combinations, Planktonic” value (from here on “Ps resistance … Planktonic”) [3, 11] is reported as 8 and the “Ps resistance to individual antibiotics and antibiotic combinations, Biofilm” value (“Ps resistance … Biofilm” for short) [4] is reported as 11. For the same compound, the “Number of P. aeruginosa isolates resistant to individual antibiotics and antibiotic combinations, Planktonic” value [5] was 8.
In the case of C[C@H]1[C@H](NC(=O)/C(=N\OC(C)(C)C(=O)O)c2csc(N)n2)C(=O)N1S(=O)(=O)O [AZTR, aztreonam], the “Ps resistance … Planktonic” value [3] is reported as 0 and the “Number of P. aeruginosa isolates resistant to individual antibiotics and antibiotic combinations, Planktonic” value [5] is reported as 0.
In the case of CC(C)(O/N=C(\C(=O)N[C@@H]1C(=O)N2C(C(=O)[O-])=C(C[n+]3ccccc3)CS[C@H]12)c1csc(N)n1)C(=O)O [CFTZ, ceftazidime], the “Number of P. aeruginosa isolates resistant to individual antibiotics and antibiotic combinations, Biofilm” value [2] is reported as 12, the “Ps resistance … Planktonic” value [3, 11] is reported as 3 and the “Ps resistance … Biofilm” value [4] is reported as 12. For the same compound, the “Number of P. aeruginosa isolates resistant to individual antibiotics and antibiotic combinations, Planktonic” value [5] was 3.
For Cc1nnc(SCC2=C(C(=O)O)N3C(=O)[C@@H](NC(=O)Cn4cnnn4)[C@H]3SC2)s1 [CFZ, cefazolin], the “Number of Staphylococcus aureus isolates resistant to individual antibiotics and antibiotic combinations, Planktonic” value ([6]; listed as CFZ4) was 4, the “Number of Staphylococcus aureus isolates resistant to individual antibiotics and antibiotic combinations, Planktonic” value ([6]; listed as CFZ8) was 6 and the “Staph resistance to individual antibiotics and antibiotic combinations, Planktonic” value (from here on “Staph resistance … Planktonic”) [7] was 2.
In the case of O=C(O)c1cn(C2CC2)c2cc(N3CCNCC3)c(F)cc2c1=O [CIPRO, ciprofloxacin], the “Number of Staphylococcus aureus isolates resistant to individual antibiotics and antibiotic combinations, Planktonic” value [6] is reported as 7, the “Ps resistance … Planktonic” value [3] is reported as 4 and the “Number of P. aeruginosa isolates resistant to individual antibiotics and antibiotic combinations, Planktonic” value [5] is reported as 4. The “Staph resistance … Planktonic” value [7] was 10.
For CCC[C@@H]1C[C@@H](C(=O)N[C@@H]([C@H]2O[C@H](SC)[C@H](O)[C@@H](O)[C@H]2O)[C@H](C)Cl)N(C)C1 [CLIN, clindamycin], the “Number of Staphylococcus aureus isolates resistant to individual antibiotics and antibiotic combinations, Planktonic” value ([6]; listed as CLI1) was 8, the “Number of Staphylococcus aureus isolates resistant to individual antibiotics and antibiotic combinations, Planktonic” value ([6]; listed as CLI4) was 5 and the “Staph resistance … Planktonic” value [7] was 9.
In the case of Cc1onc(-c2ccccc2Cl)c1C(=O)N[C@@H]1C(=O)N2[C@@H]1SC(C)(C)[C@@H]2C(=O)O [CLOX, cloxacillin], the “Number of Staphylococcus aureus isolates resistant to individual antibiotics and antibiotic combinations, Biofilm” value [8] is reported as 12, the “Number of Staphylococcus aureus isolates resistant to individual antibiotics and antibiotic combinations, Planktonic” value [6] is reported as 2 and the “Staph resistance to individual antibiotics and antibiotic combinations, Biofilm” value [9] is reported as 12. The “Staph resistance … Planktonic” value [7] was 3.
For COC1=CC(=O)C[C@@H](C)[C@]12Oc1c(Cl)c(OC)cc(OC)c1C2=O [Griseofulvin], the “effectiveness against Candida growing as a biofilm” value (from here on “effectiveness … as a biofilm”) [10] was “ineffective” and the “effectiveness in killing planktonic Candida cells” value [1] was “ineffective”.
In the case of C[C@@H](O)[C@H]1C(=O)N2C(C(=O)O)=C(SCCN=CN)C[C@H]12 [IMP, imipenem], the “Number of P. aeruginosa isolates resistant to individual antibiotics and antibiotic combinations, Biofilm” value [2] is reported as 12, the “Ps resistance … Planktonic” value [3, 11] is reported as 12 and the “Ps resistance … Biofilm” value [4] is reported as 12. The “Number of P. aeruginosa isolates resistant to individual antibiotics and antibiotic combinations, Planktonic” value [5] was 12.
NC[C@H]1O[C@H](O[C@H]2[C@H](O)[C@@H](O[C@H]3O[C@H](CO)[C@@H](O)[C@H](N)[C@H]3O)[C@H](N)C[C@@H]2N)[C@H](N)C[C@@H]1O [TB, tobramycin] was tested, and the “Number of P. aeruginosa isolates resistant to individual antibiotics and antibiotic combinations, Biofilm” value [2] was 12, the “Ps resistance … Planktonic” value [3, 11] was 3 and the “Ps resistance … Biofilm” value [4] was 12. The “Number of P. aeruginosa isolates resistant to individual antibiotics and antibiotic combinations, Planktonic” value [5] was 3.
In the case of CC(=O)N1CCN(c2ccc(OCC3COC(Cn4ccnc4)(c4ccc(Cl)cc4Cl)O3)cc2)CC1 (centres unmarked) [ketoconazole, Ketoconazole], the “effectiveness in killing planktonic Candida cells” value [1] is reported as “effective”.
C[C@@H]1[C@H](O)[C@@H](C)/C=C/C=C/CC/C=C/C=C/C=C/C=C/C(O[C@H]2O[C@H](C)[C@@H](O)[C@H](N)[C@@H]2O)CC2O[C@](O)(CC(O)C(O)CCC(O)CC(O)CC(O)CC(=O)O[C@H]1C)CC(O)C2C(=O)O (some centres unmarked) [nystatin, Nystatin] was tested, and the “effectiveness … as a biofilm” value [10] was “effective; also recorded: most effective agents” and the “effectiveness in killing planktonic Candida cells” value [1] was “effective”.
Colistin [CLO] was tested, and the “Number of P. aeruginosa isolates resistant to individual antibiotics and antibiotic combinations, Biofilm” value [2] was 12, the “Ps resistance … Planktonic” value [3, 11] was 2 and the “Ps resistance … Biofilm” value [4] was 12. The “Number of P. aeruginosa isolates resistant to individual antibiotics and antibiotic combinations, Planktonic” value [5] was 2.
Polymyxin B was tested, and the “effectiveness … as a biofilm” value [10] was “ineffective” and the “effectiveness in killing planktonic Candida cells” value [1] was “ineffective”.
